PubChem BioAssay (NCI)
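Grown in 96-well plates, cells were treated for 48 hours with each compound at five concentrations. Insufficient inhibition: endpoint recorded as highest concentration tested. The concentration for 50% growth inhibition is given as GI50. TGI marks complete inhibition of growth.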

Legend:
Assay in all cases: DTP human tumour cell line panel, 48 h
[1] = tested on: SF-295 CNS
[2] = tested on: LOX IMVI melanoma
[3] = tested on: SF-539 CNS
[4] = tested on: SK-MEL-5 melanoma
[5] = tested on: SNB-75 CNS
[6] = tested on: HCC-2998 colon
[7] = tested on: NCI/ADR-RES ovarian
[8] = tested on: DU-145 prostate
[9] = tested on: HCT-116 colon
[10] = tested on: OVCAR-4 ovarian

With `Clc1ccc(C2SCc3nc4ccccc4n32)cc1` (stereo not drawn) the TGI [1] was > 100 µM, the TGI [2] was 40.6 µM and the TGI [3] was 76.8 µM. The TGI [4] was 23.3 µM and the TGI [5] was 24.9 µM.
In the case of `COc1cc2c3c(n(C)c(=O)c2cc1OC)-c1cc2c(cc1/C3=C\CCCCl)OCO2`, the TGI [1] is reported as 99.2 µM, the TGI [6] is reported as 73.2 µM and the TGI [2] is reported as > 100 µM. The TGI [4] was 70.6 µM, the TGI [7] was > 100 µM and the GI50 [8] was 35.9 µM. The TGI [8] was > 100 µM, the GI50 [9] was 40.4 µM and the TGI [9] was > 100 µM. For the same molecule, the TGI [10] was > 100 µM and the TGI [5] was 32.2 µM.
In the case of `N#CC1=C(O)NC(O)=C(C#N)C1c1c(Cl)cccc1Cl`, the TGI [1] is reported as > 100 µM, the TGI [6] is reported as 60 µM and the TGI [2] is reported as 32 µM. For the same molecule, the TGI [3] was 41.3 µM, the TGI [4] was > 100 µM and the TGI [9] was > 100 µM. The TGI [10] was > 100 µM and the TGI [5] was 48.4 µM.
For `CCOC(=O)Cc1[nH]c(C(=O)c2ccccc2)cc1C(=O)c1ccccc1`, the TGI [1] was > 10 µM, the TGI [6] was > 100 µM and the TGI [2] was > 100 µM. For the same molecule, the TGI [4] was > 100 µM, the TGI [7] was > 100 µM and the TGI [8] was > 10 µM. The TGI [9] was 33.4 µM, the TGI [10] was 59.8 µM and the TGI [5] was > 100 µM.
In the case of `NS(=O)(=O)c1ccc(-c2ccc([As](=O)(O)O)cc2)cc1`, the TGI [1] is reported as > 100 µM, the TGI [2] is reported as > 100 µM and the TGI [3] is reported as > 100 µM. The TGI [4] was > 100 µM, the TGI [7] was > 100 µM and the TGI [8] was > 100 µM. The TGI [9] was > 100 µM, the TGI [10] was > 100 µM and the TGI [5] was > 100 µM.
For `COc1ccc(C(C2=C(O)CC(C)OC2=O)C2=C(O)CC(C)OC2=O)cc1` (stereo not drawn), the TGI [1] was > 100 µM, the TGI [6] was > 100 µM and the TGI [2] was > 100 µM. The TGI [3] was > 100 µM, the TGI [4] was > 100 µM and the TGI [9] was > 100 µM. The TGI [10] was > 100 µM and the TGI [5] was > 100 µM.
With `COCC(C#N)NC1CC(OC2CC(O)(C(=O)CO)Cc3c(O)c4c(c(O)c32)C(=O)c2c(OC)cccc2C4=O)OC(C)C1O` (stereo not drawn) the TGI [1] was 1.9 µM, the TGI [6] was 0.471 µM and the TGI [2] was 0.599 µM. For the same molecule, the TGI [3] was 0.365 µM, the TGI [4] was 0.154 µM and the TGI [7] was 16 µM. The TGI [10] was 2.08 µM and the TGI [5] was 0.373 µM.
In the case of `CC(C)(C)OC(=O)N1C(=O)C2CCCC21` (stereo not drawn), the TGI [6] is reported as > 100 µM, the TGI [2] is reported as > 100 µM and the TGI [4] is reported as > 100 µM. For the same molecule, the TGI [7] was > 100 µM, the TGI [8] was > 100 µM and the TGI [9] was > 100 µM. For the same molecule, the TGI [10] was > 100 µM and the TGI [5] was > 100 µM.
With `O=C(CC(=O)N1N=C(c2ccccc2)C(N=Nc2ccc(S(=O)(=O)CCOS(=O)(=O)O)cc2)C1=O)Nc1ccc(Cl)cc1` (stereo not drawn) the TGI [1] was > 100 µM, the TGI [6] was > 100 µM and the TGI [2] was > 100 µM. For the same molecule, the TGI [3] was > 100 µM, the TGI [4] was > 100 µM and the TGI [7] was > 100 µM. The TGI [8] was > 100 µM, the TGI [9] was > 100 µM and the TGI [5] was > 100 µM.
`CC1(C)CCCCCC(O)C(O)CCC(C)(C)C1=O` (stereo not drawn) was tested, and the TGI [1] was > 100 µM, the TGI [2] was > 100 µM and the TGI [3] was > 100 µM. The TGI [4] was > 100 µM, the TGI [7] was > 100 µM and the TGI [8] was > 100 µM. For the same molecule, the TGI [9] was > 100 µM, the TGI [10] was > 100 µM and the TGI [5] was > 100 µM.
For `CCOC(=O)c1sc2nc(SC)nc3c2c1NCN3C`, the TGI [1] was > 100 µM, the TGI [6] was > 100 µM and the TGI [2] was > 100 µM. The TGI [4] was > 100 µM, the TGI [7] was > 100 µM and the TGI [8] was > 100 µM. For the same molecule, the TGI [9] was > 100 µM, the TGI [10] was > 100 µM and the TGI [5] was 22.9 µM.
